Read-outs that look alike come from different tables or passages of the source.
Target: T1, SoxS (Escherichia coli, UniProt P0A9E2)
T1 sequence (P0A9E2 1-107): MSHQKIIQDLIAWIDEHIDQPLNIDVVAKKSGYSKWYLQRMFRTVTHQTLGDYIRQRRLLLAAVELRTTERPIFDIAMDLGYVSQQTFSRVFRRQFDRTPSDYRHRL
Assay: Chemiluminescence-based SoxS-DNA binding assay
Parameters: made in house; species or system E. coli

[1] = read-out: % Inhibition (SoxS binding to DNA)

Compound | inhibition at 50 µg/mL [1] | also measured
O=C(O)CCn1c(-c2ccccc2)nc2ccc([N+](=O)[O-])cc21 [AO] | < 0% | –
CCOC(=O)COn1c(-c2ccccc2)nc2ccc([N+](=O)[O-])cc21 [AP] | < 0% | –
O=C(O)COn1c(-c2ccccc2)nc2ccccc21 [AQ] | 0 to 29% | –
CCCOn1c(-c2ccccc2)nc2ccc([N+](=O)[O-])cc21 [AR] | < 0% | –
O=[N+]([O-])c1ccc2nc(-c3ccccc3)n(OCCO)c2c1 [AS] | < 0% | –
On1c(-c2ccccc2)nc2ccccc21 [AT] | < 0% | –
COc1ccc(-c2nc3ccc([N+](=O)[O-])cc3n2O)cc1 [AV] | 0 to 29% | –
CC(=O)c1ccc2nc(-c3ccccc3)n(O)c2c1 [AW] | 30 to 69% | –
On1c(-c2ccccc2)nc2ccc(C(F)(F)F)cc21 [AX] | 0 to 29% | –
On1c(-c2ccccc2)nc2ccc(F)cc21 [AY] | 0 to 29% | –
COc1ccc2nc(-c3ccccc3)n(O)c2c1 [AZ] | < 0% | –
O=C(O)c1ccc2nc(-c3ccccc3)n(O)c2c1 [BA] | 0 to 29% | –
N#Cc1ccc2nc(-c3ccccc3)n(O)c2c1 [BC] | 30 to 69% | –
N#CCOn1c(-c2ccccc2)nc2ccc([N+](=O)[O-])cc21 [BD] | 0 to 29% | –
NCCOn1c(-c2ccccc2)nc2ccc([N+](=O)[O-])cc21 [BE] | < 0% | –
CN(C)c1ccc2nc(-c3ccccc3)n(O)c2c1 [BF] | 0 to 29% | –
O=[N+]([O-])c1ccc2nc(-c3ccc(O)cc3)n(O)c2c1 [BG] | 30 to 69% | –

Compound | inhibition at 50 µg/mL [1] | also measured
CC(C)(C)c1ccc2nc(-c3ccccc3)n(O)c2c1 [BH] | < 0% | –
CS(=O)(=O)c1ccc2nc(-c3ccccc3)n(O)c2c1 [BI] | 30 to 69% | –
CC(=NO)c1ccc2nc(-c3ccccc3)n(O)c2c1 [BJ] | 30 to 69% | –
Nc1ccc(-c2nc3ccc([N+](=O)[O-])cc3n2O)cc1 [BL] | > 70% | –
Nc1ccccc1-c1nc2ccc([N+](=O)[O-])cc2n1O [BN] | 0 to 29% | –
Nc1cccc(-c2nc3ccc([N+](=O)[O-])cc3n2O)c1 [BO] | 30 to 69% | inhibition at 50 µg/mL (read-out: in vitro SoxS activity: percent inhibition of DNA-protein binding): < 29%
COn1c(-c2ccccc2)nc2ccc([N+](=O)[O-])cc21 [BR] | 0 to 29% | –
CC(=O)Nc1cccc(-c2nc3ccc([N+](=O)[O-])cc3n2O)c1 [BT] | 30 to 69% | –
CN(C)c1cccc(-c2nc3ccc([N+](=O)[O-])cc3n2O)c1 [BV] | 0 to 29% | –
O=[N+]([O-])c1ccc2nc(-c3ccc(Oc4ccccc4)cc3)n(O)c2c1 [BW] | 0 to 29% | –
O=[N+]([O-])c1ccc2nc(-c3ccc(Br)cc3)n(O)c2c1 [CA] | 0 to 29% | –
O=C(NCc1ccc(-c2nc3ccc([N+](=O)[O-])cc3n2O)cc1)c1ccccc1 [CD] | 30 to 69% | –
O=C(Nc1ccc(-c2nc3ccc([N+](=O)[O-])cc3n2O)cc1)c1ccc(Cl)cc1 [CE] | – | inhibition at 25 µg/mL (compound screening concentration of 25 μg/ml (footnote d), read-out: in vitro SoxS activity: percent inhibition of DNA-protein binding): > 70%
O=C(Nc1ccc(-c2nc3ccc([N+](=O)[O-])cc3n2O)cc1)c1cccc(Cl)c1 [CG] | – | EC50 (dose response analysis (footnote c), read-out: in vitro SoxS activity: concentration necessary to inhibit DNA-protein binding by 50% (EC50)): 1000 to 4900 nM
CC(=O)Nc1ccc(-c2nc3ccc([N+](=O)[O-])cc3n2O)cc1 [CH] | > 70% | –
O=[N+]([O-])c1ccc2nc(-c3ccccc3)n(O)c2c1 [GB] | 30 to 69% | –

— patent US20090131481A1, “Transcription Factor Modulating Compounds and Methods of Use Thereof” (Paratek Pharmaceuticals, Inc., published 2009)
